{"source": "patent US20040126823A1", "about": "“Modulation of prostaglandin synthesis and cancer growth” (priority 2002, published 2004)", "tested_on": "Tpl2+/+ macrophages", "test": "PGE2 levels in LPS treated macrophages (ELISA of culture supernatants)", "assay_type": "cell-based, mouse", "conditions": "pre-treatment with 20 pM PD98059; Tpl2+/+ macrophages stimulated for 4.5 hrs with LPS", "method": "Tpl2+/+ and Tpl2−/− macrophage cultures were stimulated with […] LPS. Culture supernatants collected at 0, 3, 4.5, 6 or 10 hrs were analysed for PGE2 levels by ELISA. Unstimulated Tpl2+/+ and Tpl2−/− macrophage cultures secreted similar levels of PGE2 respectively. PGE2 levels produced by unstimulated cells were given the arbitrary value of 1. The bar graphs show the fold induction of PGE2 (±SD) compared to control untreated cultures.", "data": [{"compound": "COc1cccc(-c2cc(=O)c3ccccc3o2)c1N", "note": "[PD98059]", "values": [{"measurement": "PGE2 secretion", "value": "inhibited PGE2 secretion"}]}]}
